Key:
Type in all cases: in vivo, human
LDL cholesterol = assay: Clinical trial: serum LDL-cholesterol (enzymatic and immunologic assays); conditions: patient serum
Excerpt: (§1) A group of […] patients were selected for therapy to alter lipid metabolism relative to a control group of 20 ‘matched’patients who were not treated (Patient Control Group).
(§2) The therapy group comprised 23 male and 7 female patients with an average age of 55±1.1 years. The patient control group was comprised of 20 patients with IHD, of which 15 were male and 5 were female with an average age of 53±1.2 years. Each patient gave written consent for his/her participation in the trial.
(§3) All patients had angina of II-III class of Canadian Cardiological Society classification.
(§4) Apart from the degree of generalization or severity of atherosclerosis, all groups were matched not only in age, gender and risk factors but also in medication, nitrates, β-blockers, angiotensin-converting enzyme inhibitors etc.
(§5) Each therapy was administered for 8 weeks. The blood of the patients of all four groups was tested every two weeks.
(§6) The level of LDL was estimated in two independent parameters: LDL-cholesterol measured by combination of enzymatic and immunologic assays, and Apo-B measured by immuno-turbometric assay. These assays were performed using commercially available kits which include goat anti-human apo-B polyclonals (LDL-Direct™, Randox Labs Ltd UK, EZ LDL™ Cat No-358-A, Sigma UK).

ApoA = assay: Clinical trial: serum ApoA of IHD patients under therapy; conditions: patient serum
Excerpt: as §1, §2, §3, §4, §5

Total cholesterol = assay: Clinical trial: serum total cholesterol of IHD patients under therapy; conditions: patient serum; for cholesterol lowering effect (in words): therapy administered for 8 weeks
Excerpt: as §1, §2
(§7) All patients had angina of II-III class of Canadian Cardiological Society classification. […] IHD diagnosis for the other 15 patients with a recent history of unstable angina in the first group and 10 in the patient control group was confirmed by coronary angiography, which detected 70% or more of arterial stenosis.
as §4, §5

ApoB = assay: Clinical trial: serum Apo-B (immuno-turbometric assay); conditions: patient serum
Excerpt: as §1, §2, §7, §4, §5, §6

Triglycerides = assay: Clinical trial: serum triglycerides of IHD patients under therapy; conditions: patient serum
Excerpt: as §1, §2, §3, §4, §5

CC[C@H]1OC(=O)[C@H](C)[C@@H](O[C@H]2C[C@@](C)(OC)[C@@H](O)[C@H](C)O2)[C@H](C)[C@@H](O[C@@H]2O[C@H](C)C[C@H](N(C)C)[C@H]2O)[C@](C)(O)C[C@@H](C)CN(C)[C@H](C)[C@@H](O)[C@]1(C)O [Group A, azithromycin]
LDL cholesterol (LDL cholesterol; 1 month after treatment): 44 mg/dL
LDL cholesterol (% of before-treatment value) (LDL cholesterol; 1 month after treatment): 129%
LDL cholesterol (LDL cholesterol; 2 months after treatment): 41 mg/dL
LDL cholesterol (% of before-treatment value) (LDL cholesterol; 2 months after treatment): 121%
LDL cholesterol (LDL cholesterol; 3 months after treatment): 40 mg/dL
LDL cholesterol (% of before-treatment value) (LDL cholesterol; 3 months after treatment): 118%
LDL cholesterol (LDL cholesterol; Treatment 4 weeks): 37 mg/dL
LDL cholesterol (% of before-treatment value) (LDL cholesterol; Treatment 4 weeks): 109%
LDL cholesterol (LDL cholesterol; Treatment 6 weeks): 38 mg/dL
LDL cholesterol (% of before-treatment value) (LDL cholesterol; Treatment 6 weeks): 112%
LDL cholesterol (LDL cholesterol; Treatment 8 weeks): 39 mg/dL
LDL cholesterol (% of before-treatment value) (LDL cholesterol; Treatment 8 weeks): 115%
ApoA (ApoA; 1 month after treatment): 145 mg/dL
ApoA (% of before-treatment value) (ApoA; 1 month after treatment): 90%
ApoA (ApoA; 2 months after treatment): 162 mg/dL
ApoA (% of before-treatment value) (ApoA; 2 months after treatment): 101%
ApoA (ApoA; 3 months after treatment): 161 mg/dL
ApoA (% of before-treatment value) (ApoA; 3 months after treatment): 100%
ApoA (ApoA; Treatment 4 weeks): 142 mg/dL
ApoA (% of before-treatment value) (ApoA; Treatment 4 weeks): 88%
ApoA (ApoA; Treatment 6 weeks): 143 mg/dL
ApoA (% of before-treatment value) (ApoA; Treatment 6 weeks): 89%
ApoA (ApoA; Treatment 8 weeks): 141 mg/dL
ApoA (% of before-treatment value) (ApoA; Treatment 8 weeks): 88%
Total cholesterol (Total cholesterol; 1 month after treatment): 197 mg/dL
Total cholesterol (% of before-treatment value) (Total cholesterol; 1 month after treatment): 96%
Total cholesterol (Total cholesterol; 2 months after treatment): 196 mg/dL
Total cholesterol (% of before-treatment value) (Total cholesterol; 2 months after treatment): 96%
Total cholesterol (Total cholesterol; 3 months after treatment): 198 mg/dL
Total cholesterol (% of before-treatment value) (Total cholesterol; 3 months after treatment): 97%
Total cholesterol (Total cholesterol; Treatment 4 weeks): 186 mg/dL
Total cholesterol (% of before-treatment value) (Total cholesterol; Treatment 4 weeks): 91%
Total cholesterol (Total cholesterol; Treatment 6 weeks): 190 mg/dL
Total cholesterol (% of before-treatment value) (Total cholesterol; Treatment 6 weeks): 93%
Total cholesterol (Total cholesterol; Treatment 8 weeks): 191 mg/dL
Total cholesterol (% of before-treatment value) (Total cholesterol; Treatment 8 weeks): 93%
cholesterol lowering effect (in words) (Total cholesterol): no cholesterol lowering effect
ApoB (ApoB; 1 month after treatment): 115 mg/dL
ApoB (% of before-treatment value) (ApoB; 1 month after treatment): 92%
ApoB (ApoB; 2 months after treatment): 133 mg/dL
ApoB (% of before-treatment value) (ApoB; 2 months after treatment): 106%
ApoB (ApoB; 3 months after treatment): 131 mg/dL
ApoB (% of before-treatment value) (ApoB; 3 months after treatment): 105%
ApoB (ApoB; Treatment 4 weeks): 109 mg/dL
ApoB (% of before-treatment value) (ApoB; Treatment 4 weeks): 87%
ApoB (ApoB; Treatment 6 weeks): 110 mg/dL
ApoB (% of before-treatment value) (ApoB; Treatment 6 weeks): 88%
ApoB (ApoB; Treatment 8 weeks): 113 mg/dL
ApoB (% of before-treatment value) (ApoB; Treatment 8 weeks): 90%
Triglycerides (Triglycerides; 1 month after treatment): 106 mg/dL
Triglycerides (% of before-treatment value) (Triglycerides; 1 month after treatment): 91%
Triglycerides (Triglycerides; 2 months after treatment): 118 mg/dL
Triglycerides (% of before-treatment value) (Triglycerides; 2 months after treatment): 101%
Triglycerides (Triglycerides; 3 months after treatment): 109 mg/dL
Triglycerides (% of before-treatment value) (Triglycerides; 3 months after treatment): 93%
Triglycerides (Triglycerides; Treatment 4 weeks): 112 mg/dL
Triglycerides (% of before-treatment value) (Triglycerides; Treatment 4 weeks): 96%
Triglycerides (Triglycerides; Treatment 6 weeks): 101 mg/dL
Triglycerides (% of before-treatment value) (Triglycerides; Treatment 6 weeks): 86%
Triglycerides (Triglycerides; Treatment 8 weeks): 99 mg/dL
Triglycerides (% of before-treatment value) (Triglycerides; Treatment 8 weeks): 85%

CC(=O)Oc1ccccc1C(=O)O [Group D, acetylsalicylic acid]
LDL cholesterol (LDL cholesterol; 1 month after treatment): 44 mg/dL
LDL cholesterol (LDL cholesterol; 2 months after treatment): 38 mg/dL
LDL cholesterol (% of before-treatment value) (LDL cholesterol; 2 months after treatment): 103%
LDL cholesterol (LDL cholesterol; 3 months after treatment): 43 mg/dL
LDL cholesterol (LDL cholesterol; Treatment 2 weeks): 41 mg/dL
LDL cholesterol (LDL cholesterol; Treatment 4 weeks): 41 mg/dL
ApoA (ApoA; 1 month after treatment): 184 mg/dL
ApoA (ApoA; 2 months after treatment): 166 mg/dL
ApoA (% of before-treatment value) (ApoA; 2 months after treatment): 106%
ApoA (ApoA; 3 months after treatment): 179 mg/dL
ApoA (ApoA; Treatment 2 weeks): 157 mg/dL
ApoA (% of before-treatment value) (ApoA; Treatment 2 weeks): 99%
ApoA (ApoA; Treatment 4 weeks): 151 mg/dL
ApoA (% of before-treatment value) (ApoA; Treatment 4 weeks): 96%
Total cholesterol (Total cholesterol; 1 month after treatment): 221 mg/dL
Total cholesterol (% of before-treatment value) (Total cholesterol; 1 month after treatment): 87%
Total cholesterol (Total cholesterol; 2 months after treatment): 223 mg/dL
Total cholesterol (% of before-treatment value) (Total cholesterol; 2 months after treatment): 88%
Total cholesterol (Total cholesterol; 3 months after treatment): 234 mg/dL
Total cholesterol (% of before-treatment value) (Total cholesterol; 3 months after treatment): 92%
Total cholesterol (Total cholesterol; Treatment 2 weeks): 233 mg/dL
Total cholesterol (% of before-treatment value) (Total cholesterol; Treatment 2 weeks): 92%
Total cholesterol (Total cholesterol; Treatment 4 weeks): 210 mg/dL
Total cholesterol (% of before-treatment value) (Total cholesterol; Treatment 4 weeks): 83%
cholesterol lowering effect (in words) (Total cholesterol): no cholesterol lowering effect
ApoB (ApoB; 1 month after treatment): 131 mg/dL
ApoB (% of before-treatment value) (ApoB; 1 month after treatment): 106%
ApoB (ApoB; 2 months after treatment): 142 mg/dL
ApoB (% of before-treatment value) (ApoB; 2 months after treatment): 114%
ApoB (ApoB; 3 months after treatment): 111 mg/dL
ApoB (% of before-treatment value) (ApoB; 3 months after treatment): 90%
ApoB (ApoB; Treatment 2 weeks): 137 mg/dL
ApoB (% of before-treatment value) (ApoB; Treatment 2 weeks): 110%
ApoB (ApoB; Treatment 4 weeks): 113 mg/dL
ApoB (% of before-treatment value) (ApoB; Treatment 4 weeks): 91%
Triglycerides (Triglycerides; 1 month after treatment): 146 mg/dL
Triglycerides (% of before-treatment value) (Triglycerides; 1 month after treatment): 126%
Triglycerides (Triglycerides; 2 months after treatment): 128 mg/dL
Triglycerides (Triglycerides; 3 months after treatment): 134 mg/dL
Triglycerides (Triglycerides; Treatment 2 weeks): 152 mg/dL
Triglycerides (% of before-treatment value) (Triglycerides; Treatment 2 weeks): 131%
Triglycerides (Triglycerides; Treatment 4 weeks): 111 mg/dL
Triglycerides (% of before-treatment value) (Triglycerides; Treatment 4 weeks): 96%

From US20070072814A1, “Method and means of modulating lipid metabolism” (priority 2003, published 2007)
